# Laboratory results as given in patent US10588313B1, “Compounds of fatty acids and ammonium fatty acid salts” (Falcon Lab, LLC, priority 2019, dated 2020).
# Experiments:
# [1] = system: Staphlycoccus aureous; settings: even numbered fatty acids C8 to C18; cited from earlier work
# [2] = system: Candida albicans; settings: even numbered fatty acids C8 to C18; cited from earlier work
# [3] = system: Streptococcus Group A; settings: even numbered fatty acids C8 to C18; cited from earlier work
# [4] = pH of water dispersion; assay type: physicochemical
# Experimental: (§1) A slurry of white solid formed immediately. About 200 ml of distilled water were added with stirring to obtain a clear solution with a pH of 8. […] It melted sharply at 62° C.
# After standing for 4 hours, a white, opaque, uniform thin liquid was obtained. The pH of the liquid was 6. The bottle was then shaken vigorously for several minutes. The contents of the bottle changed to a foamy, motionless, thick gel that totally filled the bottle. After standing overnight, the gel remained the same, still filling the bottle. But after standing for 48 hours, the gel reverted to the original thin liquid. Upon shaking the bottle again, the thick gel reappeared.
# [5] = system: Staphylococcus aureus ATCC 6538; assay: ASTM International Method E2315 assessment of antibacterial activity (time kill in suspension); assay type: cell-based; settings: for percent reduction of the test bacteria: pH 6, 30 seconds contact time; for percent reduction in bacteria: 1% dispersion in water
# Experimental: A 1:99 mixture of the solid compound described in Experiment 1 was made by adding 0.2 gm. to 19.8 ml. of sterile water. […]. One ml of the inoculated substance was harvested at each contact time and neutralized in 9 ml of D/E broth. Enumerations were performed for each time point using standard microbiologic plating methods. At time zero, the percent reduction in bacteria was already 99.9997%, the limit of detection. The percent reduction at 30 seconds, 2 minutes and 10 minutes were also 99.9997%. When 0.1 ml of the 1% dispersion was diluted with 9.9 ml of sterile water to prepare a 0.1% dispersion and the same tests run, the percent reduction in bacteria count was 99.9997% at the 30-second contact time.
# [6] = system: S. aureous; assay: AOAC International Use-Dilution Method, comparison test; settings: 2.5% solution
# [7] = system: Pseudomonas aeruginosa 15442; assay: ASTM E2315 antibacterial activity; assay type: cell-based; settings: 1% dispersion, 30 seconds contact time
# Experimental: (§2) A 1:99 mixture of the solid compound described in Experiment 1 was made by adding 0.2 gm. to 19.8 ml. of sterile water. Following ASTM International Method E2315 for assessment of antibacterial activity, 10 ml of this uniform mixture was aliquoted into a sterile vessel to produce a 1% dispersion that was then inoculated with the Gram-positive bacterium Staphylococcus aureus ATCC 6538 at 25° C. for a target concentration of 1×10^6 CFU (cells)/ml. One ml of the inoculated substance was harvested at each contact time and neutralized in 9 ml of D/E broth. Enumerations were performed for each time point using standard microbiologic plating methods. At time zero, the percent reduction in bacteria was already 99.9997%, the limit of detection. The percent reduction at 30 seconds, 2 minutes and 10 minutes were also 99.9997%. When 0.1 ml of the 1% dispersion was diluted with 9.9 ml of sterile water to prepare a 0.1% dispersion and the same tests run, the percent reduction in bacteria count was 99.9997% at the 30-second contact time.
# (§3) The 1% dispersion described in Example 3 was contacted with the Gram-negative bacteria Escherichia coli 8739 and Pseudomonas aeruginosa 15442 each in the manner described in Example 2. After 30 seconds of contact time, the reductions of the test bacteria were 99.9996% and 99.995% respectively.
# [8] = system: Escherichia coli 8739; assay: ASTM E2315 antibacterial activity; assay type: cell-based; settings: 1% dispersion, 30 seconds contact time
# Experimental: as §2, §3
# [9] = system: Salmonella enterica ATCC 10708; assay: AOAC International Use-Dilution Method (hard surface disinfectant, steel penicylinders); assay type: cell-based; settings: 2% dispersion, ten minutes exposure
# [10] = Stability of solid and of water dispersion on storage; assay type: physicochemical; settings: no emulsifier or surfactant
# From the text: The compounds are believed to form as the result of hydrogen bonding wherein a hydrogen atom covalently bonded to nitrogen becomes attracted to the oxygen of the carboxylic acid forming a hydrogen bond.
# Since the compounds are stable at ambient temperatures and pressures and exist as non-hygroscopic crystalline solids, they may be transported as 100% active ingredients to their point of use. […] The compounds can be stored and shipped in any type of container, including plastic, paper or cloth bags, metal, glass or plastic. In an embodiment, the compounds can be transported in such containers to the point of use by mixing with water to produce disinfecting compositions.
# When the solid compound is mixed with water, it completely distributes in the water to produce a uniform composition in the absence of any emulsifier, surfactant, soap, wetting agent, dispersing agent or suspending agent. The solid compound, while being water-insoluble, remains stable as a dispersion indefinitely.
# as §1
# [11] = system: Enterococcus faecalis 29212; assay: ASTM E2315 antibacterial activity; assay type: cell-based; settings: 1% dispersion, 30 second contact time
# Experimental: as §2
# The same dispersion used in Examples 4 and 5 was tested against Gram-positive Enterococcus faecalis 29212 in the manner described in Example 2. After 30 second contact time, the bacterial reduction was >99.9986%.
molecule,measurement,setting,value
CCCCCCCCCC(=O)O [capric acid],antimicrobial activity among fatty acids tested,[1],highest activity
same,antimicrobial activity among fatty acids tested,[2],highest activity
same,antimicrobial activity among fatty acids tested,[3],highest activity
ammonium di-octanoate [Example 10],pH of water dispersion,[4]; 0.5% dispersion in distilled water,6
same,percent reduction of the test bacteria,[5]; 0.5% dispersion in water,> 99.988%
CCCCCCCCC(=O)O.N [ammonium nonanoate],AOAC disinfectant test result,[6],no disinfectant properties
same,number of confirmed positive test tubes out of 60 carriers,[6]; pass = less than or equal to 3 positive carriers out of 60,60
ammonium di-nonanoate [Example 1],reduction of the test bacteria,[7],99.995%
same,reduction of the test bacteria,[8],99.9996%
same,AOAC disinfectant test result,[9],pass
same,number of positive test tubes (growth) out of 60 carriers,[9]; pass = less than or equal to 1 positive carrier out of 60,0
same,pH of water dispersion,[4]; 1% dispersion in distilled water,6
same,pH of water dispersion,[4]; 10% dispersion in distilled water,6
same,pH of water dispersion,[4]; concentration not given,6
same,stability of water dispersion on storage,[10],remained unchanged in appearance after months of storage
same,bacterial reduction,[11],> 99.9986%
same,percent reduction in bacteria count,"[5]; 0.1% dispersion in water, 30-second contact time",99.9997%
same,percent reduction in bacteria,[5]; 30 seconds contact time,99.9997%
same,percent reduction in bacteria,[5]; 2 minutes contact time,99.9997%
same,percent reduction in bacteria,[5]; 10 minutes contact time,99.9997%
same,percent reduction in bacteria,"[5]; time zero, 25° C., 1×10^6 CFU/ml, 99.9997% = limit of detection",99.9997%
same,percent reduction of the test bacteria,[5]; 1% dispersion of solid stored in a plastic container for over 5 years,> 99.9997%
